This note sets out measurements from US20010046996A1, “Use of a compound for preparing a drug” (priority 2000, published 2001).

Some results are limits rather than exact numbers.

Common to all, as to type: in vivo
For one data set, the system named is rabbit. In words: Acute toxicity, cutaneous, rabbit. As to the method: (§1) The tested substance(B-220), was administered daily with 6 mg/animal, a dose that can be increased since the margin to toxic effects is wide and most likely further reduce the symptoms. It is to be noted that the acute toxicity of the tested substance used according to the present invention is low, which is exemplified with the following: […]

In the next data set the test system is rat. The experiment in a line: Acute toxicity, rat. As to the method: as §1
In the next data set the test system is Lewis rats. In words: EAE (experimental autoimmune encephalomyelitis) rat model for MS, clinical score. The conditions noted are these: for delay of onset / recovery starts earlier: FIG. 2, versus control.
The test system of the next data set is mice. The experiment in a line: Chronic toxicity on mice. The note with it: tested up to 270 days.

Consider `Cc1cc2nc3c4ccccc4n(CCN(C)C)c3nc2cc1C` [B-220], for which the “NOEL (No Observable Effect Level)” value with rabbit turned out to be 200 mg/kg bw; in the data set on rat (intravenous), 12.5 mg/kg bw. Further, the LD50 in the data set on rat (intravenous) is given as over 100 mg/kg bw; with rat (oral) it was over 800 mg/kg bw. In addition, in the data set on Lewis rats (FIG. 1, B-220 daily 6 mg/animal, Interferon-beta daily 3×10^5 U/animal, versus negative control), the “reduction of the CNS symptoms (clinical score)” value is on record as 2/3. Further, the values for the delay of onset in the data set on Lewis rats (6 mg/animal) and in the data set with Lewis rats (12 mg/animal) were about 2 days and about 4 days, respectively. Also, the recovery starts earlier with Lewis rats (6 mg/animal) is on record as about 2 days; in the data set with Lewis rats (12 mg/animal) it was about 3 days. The chronic toxicity entry with mice was “has not induced toxicity”.
